From PubChem BioAssay AID328 (DTP/NCI, 2004)
Values joined by “and” are separate entries in the source; they are usually repeats but may differ in a detail not shown here. Equal entries are not always repeated. Toxic doses and inconclusive results are not listed.

Tested on: BDF1 mice, P388 leukemia ip, median survival T/C
Assay: NCI In Vivo Anticancer Drug Screen. Data for tumor model P388 Leukemia (intraperitoneal) in B6D2F1 (BDF1) mice
Settings: endpoint: median survival time, higher = longer survival
Outline: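 Vehicle-dosed animals serve as the reference; survival of compound-dosed, tumour-implanted mice is divided by it.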

[1] = dose: 25.0 mg/kg/injection, schedule: Q01DX009 (ip), vehicle: saline with Tween-80
[2] = dose: 400.0 mg/kg/injection, schedule: Q04DX003 (ip), vehicle: saline with Tween-80
[3] = dose: 50.0 mg/kg/injection, schedule: Q04DX003 (ip), vehicle: saline with Tween-80
[4] = dose: 100.0 mg/kg/injection, schedule: Q04DX003 (ip), vehicle: saline with Tween-80
[5] = dose: 200.0 mg/kg/injection, schedule: Q04DX003 (ip), vehicle: saline with Tween-80
[6] = dose: 50.0 mg/kg/injection, schedule: Q01DX009 (ip), vehicle: saline with Tween-80

CN(C)N=Nc1ccc(-c2ccccc2)cc1
T/C [1]: 99 % of control

C=CCOP(=O)(N1CC1C)N1CC1C (stereo not drawn)
T/C (dose: 6.25 mg/kg/injection, schedule: Q01DX009 (ip), vehicle: saline): 106 % of control
T/C (dose: 12.5 mg/kg/injection, schedule: Q01DX009 (ip), vehicle: saline): 99 % of control
T/C (dose: 25.0 mg/kg/injection, schedule: Q01DX009 (ip), vehicle: saline): 106 % of control
T/C (dose: 30.0 mg/kg/injection, schedule: Q04DX003 (ip), vehicle: saline): 109 % of control
T/C (dose: 45.0 mg/kg/injection, schedule: Q04DX003 (ip), vehicle: saline): 118 % of control
T/C (dose: 75.0 mg/kg/injection, schedule: Q01DX009 (ip), vehicle: saline): 150 % of control and 161 % of control
T/C (dose: 100.0 mg/kg/injection, schedule: Q01DX009 (ip), vehicle: saline): 117 % of control
T/C (dose: 100.0 mg/kg/injection, schedule: Q04DX003 (ip), vehicle: saline): 180 % of control and 188 % of control
T/C (dose: 150.0 mg/kg/injection, schedule: Q04DX003 (ip), vehicle: saline): 188 % of control

O=C1CCC(N2C(=O)c3ccccc3C2=O)C(=O)N1 (stereo not drawn)
T/C (dose: 100.0 mg/kg/injection, schedule: Q01DX010 (ip), vehicle: saline): 96 % of control
T/C (dose: 200.0 mg/kg/injection, schedule: Q01DX010 (ip), vehicle: saline): 96 % of control
T/C (dose: 400.0 mg/kg/injection, schedule: Q01DX010 (ip), vehicle: saline): 92 % of control
T/C (dose: 800.0 mg/kg/injection, schedule: Q01DX010 (ip), vehicle: saline): 92 % of control

CN=S(=O)(OCCCCOS(=O)(=NC)c1ccc(C)cc1)c1ccc(C)cc1 (stereo not drawn)
T/C [2]: 152 % of control

O=c1[nH]c(=O)c2cccnc2[nH]1
T/C (dose: 25.0 mg/kg/injection, schedule: Q01DX009 (ip), vehicle: saline sonified): 100 % of control
T/C (dose: 50.0 mg/kg/injection, schedule: Q01DX009 (ip), vehicle: saline sonified): 100 % of control
T/C (dose: 100.0 mg/kg/injection, schedule: Q01DX009 (ip), vehicle: saline sonified): 94 % of control

CCOC(=O)NC1=C(N2CC2C)C(=O)C(NC(=O)OCC)=C(N2CC2C)C1=O (stereo not drawn)
T/C (dose: 3.12 mg/kg/injection, schedule: Q01DX001 (ip), vehicle: Klucel (hydroxypropylcellulose) (HPC)): 123 % of control
T/C (dose: 12.5 mg/kg/injection, schedule: Q01DX001 (ip), vehicle: Klucel (hydroxypropylcellulose) (HPC)): 113 % of control

Cc1ccc(OC/C=C/CS(=O)(=O)c2ccc(Cl)cc2)cc1
T/C (dose: 100.0 mg/kg/injection, schedule: Q04DX003 (ip), vehicle: Klucel (hydroxypropylcellulose) (HPC)): 95 % of control
T/C (dose: 200.0 mg/kg/injection, schedule: Q04DX003 (ip), vehicle: Klucel (hydroxypropylcellulose) (HPC)): 95 % of control
T/C (dose: 400.0 mg/kg/injection, schedule: Q04DX003 (ip), vehicle: Klucel (hydroxypropylcellulose) (HPC)): 104 % of control

O=C(O)c1ccc(C(=O)O)c2c(C(=O)O)ccc(C(=O)O)c12
T/C [3]: 95 % of control
T/C [4]: 95 % of control
T/C [5]: 90 % of control

COc1ccc(OC)c(C(=O)C[n+]2ccccc2)c1
T/C [1]: 91 % of control
T/C [6]: 91 % of control

Cc1ccc(C(=O)C2CC2)c(C)c1
T/C [6]: 92 % of control
T/C (dose: 100.0 mg/kg/injection, schedule: Q01DX009 (ip), vehicle: saline with Tween-80): 103 % of control
T/C [4]: 112 % of control
T/C (dose: 200.0 mg/kg/injection, schedule: Q01DX009 (ip), vehicle: saline with Tween-80): 100 % of control
T/C [5]: 120 % of control
T/C [2]: 108 % of control

COC(=O)c1ccc(CBr)cc1
T/C [1]: 103 % of control
T/C (dose: 25.0 mg/kg/injection, schedule: Q04DX003 (ip), vehicle: saline with Tween-80): 100 % of control
T/C [6]: 92 % of control
T/C [3]: 91 % of control
T/C [4]: 100 % of control

O=C1N2CCOC2=NC1(c1ccccc1)c1ccccc1
T/C (dose: 12.5 mg/kg/injection, schedule: Q01DX009 (ip), vehicle: water): 94 % of control
T/C (dose: 25.0 mg/kg/injection, schedule: Q01DX009 (ip), vehicle: water): 100 % of control
T/C (dose: 50.0 mg/kg/injection, schedule: Q01DX009 (ip), vehicle: water): 94 % of control
T/C (dose: 100.0 mg/kg/injection, schedule: Q01DX009 (ip), vehicle: water): 94 % of control
